Test results reported in ChEMBL document CHEMBL1145259, “Arylacetamide kappa opioid receptor agonists with reduced cytochrome P450 2D6 inhibitory activity” (Bioorg Med Chem Lett, 2005).
pIC50, pKi: −log10 of the molar value.

Columns and labels:
CYP2D6 = CYP2D6 (Homo sapiens, UniProt P10635); experiment: Inhibition of cytochrome P450 2D6 activity was measured by the inhibition of HAMC production at the concentration of 10 uM; type: ADME
Mu-type opioid receptor [1] = target: T1, Mu-type opioid receptor (Homo sapiens, UniProt P35372); experiment: Inhibitory constant against human Opioid receptor mu 1 using [3H]diprenorphine as radio ligand
[2] = target: T2, Delta-type opioid receptor (Homo sapiens, UniProt P41143); experiment: Inhibitory constant against human Opioid receptor delta 1 using [3H]diprenorphine as radio ligand
[3] = target: T2, Delta-type opioid receptor; experiment: Percent inhibition against human Opioid receptor delta 1 using [3H]diprenorphine as radio ligand; settings: concentration not given here
Cytochrome P450 2D6 = Cytochrome P450 2D6 (Homo sapiens, UniProt P10635); experiment: Inhibition of cytochrome P450 2D6 was determined using MAMC (7-methoxy-4-aminomethyl-coumarin) as substrate; type: ADME
Mu-type opioid receptor [4] = target: T1, Mu-type opioid receptor; experiment: Percent inhibition against human Opioid receptor mu 1 using [3H]diprenorphine as radio ligand; design: concentration or dose not given beside the values; settings: concentration not given here
[5] = target: T2, Delta-type opioid receptor; experiment: Percent inhibition constant against human Opioid receptor delta 1 using [3H]diprenorphine as radio ligand; settings: concentration not given here

CYP2D6, sequence (P10635 whole entry): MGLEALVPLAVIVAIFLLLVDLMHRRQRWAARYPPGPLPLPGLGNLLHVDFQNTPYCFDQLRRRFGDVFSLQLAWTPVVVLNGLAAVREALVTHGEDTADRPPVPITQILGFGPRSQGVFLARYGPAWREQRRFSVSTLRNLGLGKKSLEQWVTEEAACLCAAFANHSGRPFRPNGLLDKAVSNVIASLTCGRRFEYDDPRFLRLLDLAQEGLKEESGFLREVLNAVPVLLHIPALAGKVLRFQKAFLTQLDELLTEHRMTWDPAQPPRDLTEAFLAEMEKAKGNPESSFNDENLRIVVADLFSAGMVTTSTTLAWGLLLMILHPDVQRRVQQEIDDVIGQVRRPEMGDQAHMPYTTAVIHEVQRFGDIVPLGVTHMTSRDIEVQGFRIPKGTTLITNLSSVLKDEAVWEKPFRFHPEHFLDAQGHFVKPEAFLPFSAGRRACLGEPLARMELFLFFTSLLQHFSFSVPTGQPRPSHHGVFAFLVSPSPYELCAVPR
Cytochrome P450 2D6, sequence (P10635 whole entry): as above
T1 sequence (P35372 whole entry): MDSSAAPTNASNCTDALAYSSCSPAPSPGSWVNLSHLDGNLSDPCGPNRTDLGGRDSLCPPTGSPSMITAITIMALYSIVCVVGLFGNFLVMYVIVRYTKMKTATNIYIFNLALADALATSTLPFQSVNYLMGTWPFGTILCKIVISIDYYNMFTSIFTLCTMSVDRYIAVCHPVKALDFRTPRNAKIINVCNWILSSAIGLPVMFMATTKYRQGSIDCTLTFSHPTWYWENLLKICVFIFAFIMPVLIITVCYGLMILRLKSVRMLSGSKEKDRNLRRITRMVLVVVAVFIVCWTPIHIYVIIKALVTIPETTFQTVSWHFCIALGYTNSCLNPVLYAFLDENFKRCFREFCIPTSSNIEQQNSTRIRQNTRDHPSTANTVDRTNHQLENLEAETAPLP
T2 sequence (P41143 whole entry): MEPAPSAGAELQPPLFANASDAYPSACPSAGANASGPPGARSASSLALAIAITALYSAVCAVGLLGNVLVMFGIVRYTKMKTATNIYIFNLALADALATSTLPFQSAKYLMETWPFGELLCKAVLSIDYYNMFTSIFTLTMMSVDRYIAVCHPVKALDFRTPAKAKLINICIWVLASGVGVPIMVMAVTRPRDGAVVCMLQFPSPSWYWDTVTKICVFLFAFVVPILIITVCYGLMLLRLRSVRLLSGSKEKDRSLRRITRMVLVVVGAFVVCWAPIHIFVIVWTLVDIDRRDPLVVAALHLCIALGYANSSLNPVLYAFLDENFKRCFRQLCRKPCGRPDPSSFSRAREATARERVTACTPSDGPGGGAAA

Compound	pKi (Mu-type opioid receptor [1])	pKi [2]	pIC50 (Cytochrome P450 2D6)	further results
CN(C(=O)Cc1ccc(CNS(C)(=O)=O)cc1)[C@H](CN1CCCC1)c1ccccc1	6.36	5.95	–	inhibition at 10 µM (CYP2D6): 45%
CN(C(=O)Cc1cccc(CN)c1)[C@H](CN1CCCC1)c1ccccc1	5.64	–	6.97	inhibition [3]: 1.4%
CN(C(=O)Cc1ccccc1CN)[C@H](CN1CCCC1)c1ccccc1	–	–	7.74	inhibition (Mu-type opioid receptor [4]): 29%; inhibition [5]: 37%
CN(C(=O)Cc1ccc(CNS(C)(=O)=O)cc1)[C@H](CN1CC[C@H](O)C1)c1ccccc1	6.82	6.78	–	inhibition at 10 µM (CYP2D6): 25%
CC(=O)NCc1cccc(CC(=O)N(C)[C@H](CN2CCCC2)c2ccccc2)c1	–	–	6.22	inhibition (Mu-type opioid receptor [4]): 21%; inhibition [3]: 15%
CN(C(=O)Cc1ccc2c(c1)CN(S(C)(=O)=O)C2)[C@H](CN1CCCC1)c1ccccc1	7.13	5.83	5.98	–
CN(C(=O)Cc1cccc(CNS(C)(=O)=O)c1)[C@H](CN1CCCC1)c1ccccc1	–	–	5.74	–
CC(=O)NCc1ccc(CC(=O)N(C)[C@H](CN2CCCC2)c2ccccc2)cc1	–	–	5.96	inhibition (Mu-type opioid receptor [4]): 26%; inhibition [3]: 0%
CC(C)S(=O)(=O)NCc1ccc(CC(=O)N(C)[C@H](CN2CC[C@H](O)C2)c2ccccc2)cc1	–	–	–	inhibition at 10 µM (CYP2D6): 27%
CNC(=O)NCc1ccc(CC(=O)N(C)[C@H](CN2CCCC2)c2ccccc2)cc1	–	5.89	5.91	inhibition (Mu-type opioid receptor [4]): 43%
CN(C(=O)Cc1ccccc1)[C@H](CN1CCCC1)c1ccccc1	–	–	7.34	–
Cc1ccc(S(=O)(=O)NCc2ccc(CC(=O)N(C)[C@H](CN3CC[C@H](O)C3)c3ccccc3)cc2)cc1	–	7.57	5.25	–
CCCS(=O)(=O)NCc1ccc(CC(=O)N(C)[C@H](CN2CC[C@H](O)C2)c2ccccc2)cc1	5.98	6.91	–	inhibition at 10 µM (CYP2D6): 27%
CN(C(=O)Cc1ccc(CN)cc1)[C@H](CN1CCCC1)c1ccccc1	–	–	6.49	inhibition (Mu-type opioid receptor [4]): 41%; inhibition [3]: 17%
CN(C(=O)Cc1ccc(NS(C)(=O)=O)cc1)[C@H](CN1CC[C@H](O)C1)c1ccccc1	6.98	6.75	5.26	–
CN(C(=O)Cc1ccccc1CNS(C)(=O)=O)[C@H](CN1CCCC1)c1ccccc1	6.24	6.05	6.53	–
CN(C(=O)Cc1ccc(CNS(=O)(=O)Cc2ccccc2)cc1)[C@H](CN1CC[C@H](O)C1)c1ccccc1	–	6.76	5.24	–
CN(C(=O)Cc1ccc(CNS(=O)(=O)c2ccccc2)cc1)[C@H](CN1CC[C@H](O)C1)c1ccccc1	–	–	5.36	–
CN(C(=O)Cc1ccc(Cl)c(Cl)c1)[C@H](CN1CCCC1)c1ccccc1 [ICI-199,441]	–	–	7.59	–
CN(C(=O)Cc1ccc(CCCNS(C)(=O)=O)cc1)[C@H](CN1CC[C@H](O)C1)c1ccccc1	–	–	–	inhibition at 10 µM (CYP2D6): 46%
CN(C(=O)Cc1ccc(CNS(=O)(=O)c2ccc(F)cc2)cc1)[C@H](CN1CC[C@H](O)C1)c1ccccc1	5.97	7.20	5.24	–
CC(=O)NCc1ccccc1CC(=O)N(C)[C@H](CN1CCCC1)c1ccccc1	5.91	6.05	7.46	–
CCCCS(=O)(=O)NCc1ccc(CC(=O)N(C)[C@H](CN2CC[C@H](O)C2)c2ccccc2)cc1	5.98	6.78	5.10	–
CN(C(=O)Cc1ccc(CCNS(C)(=O)=O)cc1)[C@H](CN1CC[C@H](O)C1)c1ccccc1	–	6.97	–	inhibition at 10 µM (CYP2D6): 48%
CCS(=O)(=O)NCc1ccc(CC(=O)N(C)[C@H](CN2CC[C@H](O)C2)c2ccccc2)cc1	5.99	–	–	inhibition at 10 µM (CYP2D6): 31%
CN(C(=O)Cc1ccc(CNS(=O)(=O)Cc2cccs2)cc1)[C@H](CN1CC[C@H](O)C1)c1ccccc1	5.97	7.26	5.32	–
